Measured values published in patent US20190125735A1, “INHIBITION OF P38 MAPK FOR THE TREATMENT OF CANCER” (Board of Regents, The University of Texas System, priority 2015, published 2019).

Columns and labels:
DU145 cells = assay: FACS CD44/CD24 in DU145 cells; format: cell-based, human; settings: DU145, 5 μM, 7 days
Experimental: Fluorescence-activated cell sorting (FACS) for PSAHi & PSA−/lo cells and CD44Hi & CD24Lo cells was performed as described previously (Hollier et al., 2013) using BD Influx sorter.

MDA-MB-231 cells = assay: Experimental metastasis model, MDA-MB-231 cells via tail vein of NOD/SCID mice; format: in vivo, mouse; settings: daily injection beginning 48 h post-implantation
Source text: Since many breast cancer patients harbor occult micrometastases, at the time of diagnosis, and metastasis is often attributed to the systemic dissemination of tumor cells before or during surgical resection of the primary tumor (Pantel et al., 1999; Fehm et al., 2008), it was examined whether p38 inhibition could also prevent colonization and progression to macrometastasis. For this, an experimental metastasis model was employed, which circumvents the early steps of the metastatic cascade. Luciferase-labeled MDA-MB-231 cells were injected via the tail vein of NOD/SCID mice, and the emergence of lung metastases were monitored using bioluminescence. […] To eliminate the possibility of “off-target” effects, mice were intravenously injected with MDA-MB-231 cells expressing either control shRNA or p38 shRNA.
NOD/SCID and BALB/c mice were purchased from the Jackson Laboratory (Bar Harbor, Me., USA). […] Mice were assessed weekly for tumor growth and metastasis via subcutaneous injection of D-Luciferin (150 mg/kg; Caliper LifeSciences, Hopkinton, Mass., USA) and bioluminescent imaging (IVIS imaging system 200 series; Xenogen Corporation, PerkinElmer, Waltham, Mass., USA). Primary tumor size was measured with a caliper as the product of two perpendicular diameters (mm^2). […]

[1] = test system: HMLE-Snail, HMLE-Twist, MDA-MB-231 and SUM159 cells; assay: EMT marker immunoblotting in mesenchymal mammary cells; format: cell-based, human; settings: relative to vehicle-treated cells
Experimental: It was next ascertained whether p38 inhibition compromises the maintenance of the established EMT phenotype.
(§1) Immunoblotting and immunofluorescence (Mani et al., 2008) were performed as previously described. Primary antibodies were as follows: β-actin (Sigma, St Louis, Mo., USA; A3853), mouse anti-human FOXC2 (Dr. Naoyuki Miura, Hamamatsu University School of Medicine, Japan), goat polyclonal anti-FOXC2 (Santa Cruz Biotechnology, Dallas, Tex., USA; sc-21397), p-p38 (Cell Signaling, Danvers, Mass., USA; 4511), p38 (Cell Signaling; 9211), E-cadherin (BD Biosciences, San Jose, Calif., USA; 61081), fibronectin (BD Biosciences; 610077), vimentin (Novus Biologicals, Littleton, Colo., USA; NB200-623), ZEB1 (Novus Biologicals; NBP1-05987), and HA (Covance, Princeton, N.J., USA; MMS-101P).

Foxc2 [2] = assay: Foxc2/FOXC2 protein immunoblotting in 4T1 cells; format: cell-based, mouse
FOXC2 [3] = assay: FOXC2 protein levels by immunoblotting in mammary cell lines; format: cell-based, human; settings: series of cell lines, relative to vehicle, 24 h
Experimental: Immortalized human mammary epithelial (HMLE) cells expressing empty vector (pWZL), Snail, Twist, Goosecoid (GSC), or an activated form of TGFβ1, V12H-Ras-transformed HMLE (HMLER) and HMLER-FOXC2 cells were maintained as previously described (Elenbaas et al., 2001) For 4-hydroxy-tamoxifen (4-OHT) treatment, HMLE-Snail-ER or HMLE-Twist-ER cells were exposed to 20 nM 4-OHT for the indicated number of days. MCF7, MDA-MB-231 and SUM159 human breast cancer cells and the 4T1 mouse mammary carcinoma cells were cultured as described. Human non-tumorigenic MCF10A cells were cultured as described (Hollier et al., 2013), and treated with 2.5 ng/ml TGFβ1 for 3 days to elicit EMT.
as §1

HMLER cells = assay: Sphere formation of HMLER cells expressing FOXC2 variants; format: cell-based, human
Experimental: For this, phosphomimetic FOXC2(S367E) and non-phosphorylatable FOXC2(S367A) mutants were generated and their ability to bestow mesenchymal and stem-cell traits relative to wild-type FOXC2 (referred to as FOXC2) was evaluated.

mesenchymal cells = assay: Scratch/wound-healing assay of mesenchymal mammary cells; format: cell-based, human
Source text: The effects of p38 inhibition on invasive potential, which strongly correlates with the formation of invadopodia, was investigated. These specialized actin-based cell membrane protrusions secrete matrix metalloproteinases, enabling degradation of the nearby extracellular matrix (Eckert et al., 2011). The formation of invadopodia was quantified by assessing the ability of cells to degrade FITC-conjugated gelatin.
Quantification of invadopodia (Eckert et al., 2011), scratch/wound-healing assays (Sarkar et al., 2015) fluorescence-activated cell sorting (FACS), and sphere-formation assays (Mani et al., 2008) were conducted as described previously.

[4] = test system: BCR-ABL+ mouse ALL cells seeded on MSCs; assay: Post-screening leukemic cell cluster formation underneath pretreated MSCs; format: cell-based; settings: imatinib 5 μM with SB203580 20 μM or dexamethasone 50 nM, 4 days + 24 hours
Source text: Phase-contrast images of co-cultured MSCs and ALL cells were obtained using an Axio Observer.Z1 microscope, an AxioCam MR camera, and AxioVision software (Zeiss, Oberkochen, Germany). For screening, a cluster was defined as a group of more than five leukemic cells under the MSCs. The total number of leukemic cell clusters was the average number of clusters from three different fields (10× objective). For post-screening experiments, a cluster was defined as a group of more than 10 leukemic cells under the MSCs. The total number of leukemic cell clusters was the average number of clusters from 10 different fields (10× objective).

C[S+]([O-])c1ccc(-c2nc(-c3ccc(F)cc3)c(-c3ccncc3)[nH]2)cc1 (stereo not drawn) [SB203580, 4-(4-Fluorophenyl)-2-(4-methylsulfinylphenyl)-5-(4-pyridyl) 1H-imidazole]
CD44^hi/CD24^lo fraction (DU145 cells): significant reduction | Event-free survival (MDA-MB-231 cells): extended event-free survival | Metastatic burden (lung) (MDA-MB-231 cells): significantly reduced the metastatic burden | Expression of EMT markers [1]: altered the expression of EMT markers | Phosphomimetic FOXC2(S367E) levels (Foxc2 [2]; 4T1-FOXC2(S367E) cells): remained unaltered | Endogenous Foxc2 protein levels (Foxc2 [2]; 4T1 cells, 24 h): significant reduction of endogenous Foxc2 protein levels | Endogenous Foxc2 protein levels (Foxc2 [2]; vector-transduced 4T1 cells): abolished endogenous Foxc2 protein levels | FOXC2 protein levels (FOXC2 [3]): consistent and striking decrease in FOXC2 protein levels | Sphere-forming capacity (HMLER cells; HMLER-FOXC2(S367E) cells): retained the ability to form spheres even in the presence of SB203580 | Sphere-forming capacity (HMLER cells; HMLER-FOXC2 cells): reduced | Migratory capacity (mesenchymal cells): markedly reduced the migratory capacity of mesenchymal cells | Leukemic cell clusters underneath imatinib-pretreated MSCs [4]: completely prevented leukemic cell cluster formation
